Results: ChEMBL document CHEMBL1201862, “PubChem BioAssay data set” (2004)
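Dose response: 5 concentrations. Exposure: 48 h. Format: 96-well plates. Endpoint: linear interpolation; highest concentration if not reached. GI50 is the concentration that inhibits growth by half.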 Activity calls are given as the source filed them. Rule as the data show it: active = GI50 up to about 1.1 µM and inactive = higher.

How the values were obtained:
Experiment in all cases: growth of human tumour cells (NCI), 48 h
[1] = test system: T47D
[2] = test system: CAKI-1
[3] = test system: MOLT-4
[4] = test system: SK-MEL-28
[5] = test system: UACC-257
[6] = test system: OVCAR-3
[7] = test system: UACC-62
[8] = test system: SF-295
[9] = test system: MDA-MB-231
[10] = test system: NCI-H226
[11] = test system: HCT-15
[12] = test system: SN12C
[13] = test system: ACHN
[14] = test system: UO-31
[15] = test system: SK-MEL-2
[16] = test system: A549
[17] = test system: TK-10
[18] = test system: HCC 2998

Structure (SMILES) | GI50 [1] | GI50 [2] | GI50 [3] | GI50 [4] | GI50 [5] | GI50 [6] | GI50 [7] | GI50 [8] | GI50 [9] | GI50 [10] | GI50 [11] [µM] | GI50 [12] | GI50 [13] | GI50 [14] | GI50 [15] | GI50 [16] | GI50 [17] | GI50 [18]
CC(=O)OCc1cc(=O)n2c([nH]c3ccccc32)c1C#N | 78.5 µM (inactive) | 28.2 µM (inactive) | 47.1 µM (inactive) | 82.6 µM (inactive) | > 100 µM (inactive) | 43.2 µM (inactive) | 59.7 µM (inactive) | 58.3 µM (inactive) | 48.4 µM (inactive) | > 100 µM (inactive) | 21.8 | 67 µM (inactive) | 52.4 µM (inactive) | 78.3 µM (inactive) | 76.6 µM (inactive) | 51.9 µM (inactive) | 82.4 µM (inactive) | 42.6 µM (inactive)
O=C1C=CC2(C=C1)O[C@H](CCc1ccccc1)[C@@H](CCc1ccccc1)O2 | 76.4 µM (inactive) | > 100 µM (inactive) | 81.8 µM (inactive) | > 100 µM (inactive) | > 100 µM (inactive) | > 100 µM (inactive) | > 100 µM (inactive) | > 100 µM (inactive) | > 100 µM (inactive) | > 100 µM (inactive) | > 100 | > 100 µM (inactive) | > 100 µM (inactive) | > 100 µM (inactive) | > 100 µM (inactive) | 43.7 µM (inactive) | > 100 µM (inactive) | 
CN(C)/C=N/c1ccc2[nH]c3ccccc3c2c1 | 30.6 µM (inactive) | 35.2 µM (inactive) | 27.3 µM (inactive) | 23.3 µM (inactive) | 15.9 µM (inactive) | > 100 µM (inactive) | 21 µM (inactive) | 31.3 µM (inactive) | 19.8 µM (inactive) | 27.4 µM (inactive) | 20.6 | 52.4 µM (inactive) | 48.1 µM (inactive) | 29 µM (inactive) | 16.7 µM (inactive) | 39.7 µM (inactive) | 28.2 µM (inactive) | 
Cn1c(COC(=O)NC2CCCCC2)c(COC(=O)NC2CCCCC2)c2ccc3cc(Cl)c(Cl)cc3c21 | 5.37 µM (inactive) | 2.62 µM (inactive) | 14.8 µM (inactive) | 12.5 µM (inactive) | 14.5 µM (inactive) | 15.1 µM (inactive) | 11 µM (inactive) | 22.8 µM (inactive) | 10.2 µM (inactive) | 34.2 µM (inactive) | 12.2 | 11.7 µM (inactive) | 14.3 µM (inactive) | 28.4 µM (inactive) | 14.1 µM (inactive) | 48.1 µM (inactive) | 16.7 µM (inactive) | 13.7 µM (inactive)
CCOP(=O)(OCC)/C(C#N)=C(\C)c1ccco1 | > 10 µM (inactive) | > 10 µM (inactive) | > 10 µM (inactive) | > 10 µM (inactive) | > 10 µM (inactive) | > 10 µM (inactive) | > 10 µM (inactive) | > 10 µM (inactive) | > 10 µM (inactive) | > 10 µM (inactive) | > 10 | > 10 µM (inactive) | > 10 µM (inactive) | > 10 µM (inactive) | > 10 µM (inactive) | > 10 µM (inactive) | > 10 µM (inactive) | > 10 µM (inactive)
CC(=O)OC12c3ccccc3C(c3ccccc31)C1C(=O)N(c3ccccn3)C(=O)C12 (centres undefined) | 53.3 µM (inactive) | > 100 µM (inactive) | 32.8 µM (inactive) | 85.9 µM (inactive) | 31.3 µM (inactive) | 28.4 µM (inactive) | 91.6 µM (inactive) | 58.2 µM (inactive) | 77.8 µM (inactive) | > 100 µM (inactive) | 69.3 | 81.1 µM (inactive) |  | 15.8 µM (inactive) |  | 62.7 µM (inactive) | > 100 µM (inactive) | 72.6 µM (inactive)
CN(C)c1ccc(-c2[nH]c(=O)c3ccccc3[n+]2C)cc1 | 41.3 µM (inactive) |  | 51.9 µM (inactive) | > 100 µM (inactive) | 30.5 µM (inactive) |  | 47.5 µM (inactive) | > 100 µM (inactive) | > 100 µM (inactive) | 40.6 µM (inactive) | > 100 | > 100 µM (inactive) | 62.5 µM (inactive) | 39.4 µM (inactive) |  | > 100 µM (inactive) | > 100 µM (inactive) | > 100 µM (inactive)
